Measurements reported in article PMC9478491, “Therapeutic effects and mechanisms of N-(9,10-anthraquinone-2-ylcarbonyl) xanthine oxidase inhibitors on hyperuricemia” (Frontiers in Pharmacology, 2022).
“And” between values parts separate entries of the source, which are not always exact repeats. Equal entries are not always repeated. Where two headings read alike, the source gives them in different places.

Key:
mice = tested on: mice; set-up: method as in Izmerov et al., 1982; details: ref Izmerov et al., 1982; cited from earlier work
rats = tested on: rats; set-up: method as in Izmerov et al., 1982; details: ref Izmerov et al., 1982; cited from earlier work
HK-2 cells = assay: Culture supernatant UA level of hyperuricemia HK-2 cells; format: cell-based, human; details: allopurinol 100 μmol/L
Description: According to the establishment method of HK-2 cells, hyperuricemia model was reported in the literature ([Hou et al., 2019]), and HK-2 cells was cultured in a complete medium in a 5% CO2, 37°C cell incubator. The cells in the logarithmic growth phase were inoculated on a 24-well plate at a concentration of 10^5 cells/ml. The cells were cultured in a 37 °C incubator for 24 h. 24 h later, discard the culture medium, and wash cells by PBS for three times. Add 2.5 mmol/L adenosine solution prepared from the incomplete medium to each well and incubate in the incubator for 24 h. Then 0.005 IU/mg XO solution was added to each well in the 24-well plate, and the supernatant was collected after incubation for 12 h. The absorbance was measured on the microplate reader using the UA kit.
Hk-2 cells were cultured in a 5% CO2 cell incubator at 37 °C in complete medium. The cells in the logarithmic growth phase were inoculated on a 24-well plate at a concentration of 10^5 cells/ml and cultured in a 5% CO2 cell incubator at 37°C for 24 h. After 24 h, the culture medium was discarded and washed with PBS for three times. […] After 24 h, the model and drug administration groups were washed with PBS for three times, and the model and drug administration groups were added with 2.5 mmol/L adenosine solution prepared with incomplete whole medium and incubated in an incubator for 24 h. […]

XOD [1] = format: cell-based, mouse; details: AML12 cells, allopurinol 100 μmol/L, p < 0.001
[2] = tested on: potassium oxonate-induced hyperuricemia mice; assay: UA, CRE and BUN in serum and urine of hyperuricemia mice; format: in vivo, mouse; details: allopurinol 10 mg/kg gavage, 7 days
Description: Ninety SPF male KM mice (20 ± 2 g) were maintained in a normally controlled breeding room with standard laboratory food and water for 1 week prior to the experiments. The uricase inhibitor potassium oxonate was used to induce hyperuricemia in mice, according to previous reports ([Chen et al., 2019]).
Potassium oxonate (model drug), NAY (drug to be tested), and allopurinol (positive drug) were dissolved or suspended in double steaming water. The drug dose used is expressed in “mg/kg.” The dose given for each dose is converted based on the body surface area conversion method. […] Except the normal control mice, others were orally administered by 250 mg/kg potassium oxonate once daily for seven consecutive days to induce hyperuricemia. […] After 7 days’ treatment, diets were removed from the cages 12 h before the animals were sacrificed. The blood was allowed to clot for approximately 1 h at room temperature and centrifuged at 3,000 rpm for 10 min to obtain serum. Serum was divided into three portions, one to detect biochemical markers such as UA, one to detect inflammatory factors, and the remaining stored at−20°C as a backup. […]
The levels of serum UA, CRE, and BUN were measured by using the method recommended in the purchase kit. The levels of serum TNF-α, IL-6, and NLRP3 were measured by using the method recommended in the ELISA kits.

AML12 cells = assay: Culture supernatant UA level of hyperuricemia AML12 cells; format: cell-based, mouse; details: allopurinol 100 μmol/L, p < 0.001
Description: AML12 cells in logarithmic growth were digested with trypsin, and cell suspension was made by pipette blowing. After counting with a blood counting plate, the cells were diluted to 10^5 cells/mL, and 1 ml of each well was inoculated in a medium dish. The cells were placed in a 5% (V/V) CO2 cell incubator at 37 °C for 24 h. 24 h later, the cell supernatant was discarded, washed with PBS for three times, and the adenosine solution prepared with the current basic medium without fetal bovine serum as the solvent was added. The dosage of adenosine was 1.5 mmol/L, and the cells were placed in the cell culture box for further incubation for 24 h. The culture dish was taken out, 0.005 IU xanthine oxidase (XO) was added to each well, and incubated in the cell incubator for 24 h, and then the hyperuricemia liver cell model was obtained.
AML12 cells were cultured in complete medium at 37 °C and a 5% CO2 cell incubator. Logarithmic growth cells were made into cell suspension with trypsin. The cells were inoculated into 24-well plates at the concentration of 10^5 cells/ml and cultured in a cell incubator at 37°C and 5% CO2 for 24 h. After the cells adhered to the wall, the medium in 24-well plates was discarded and washed with PBS for three times. […] After 24 h, the model and administration groups were washed with PBS for three times. […]

patients = tested on: patients; set-up: method as in Madero et al., 2009; Liu et al., 2016; details: patients taking allopurinol; ref Madero et al., 2009; Liu et al., 2016; cited from earlier work
[3] = tested on: TNF-α, IL-6, IL-1β, NLRP3; assay: TNF-α, IL-6, IL-1β, NLRP3 in HK-2 culture supernatant (ELISA); format: cell-based, human; details: HK-2 cells, allopurinol 100 μmol/L, p < 0.01
Excerpt: The culture, induction, and administration of hyperuricemia HK-2 cells were the same as described earlier. Finally, the supernatant of the culture medium was collected to detect the levels of inflammatory factors. ELISA kits were used to detect the supernatant TNF-α, IL-6, IL-1β, and NLRP3 levels of the culture medium.

[4] = tested on: potassium oxonate-induced hyperuricemia mice; assay: Morphology (HE) of renal and liver tissue in hyperuricemia mice; format: in vivo, mouse; details: allopurinol 10 mg/kg
Excerpt: The liver and kidney tissues fixed in paraformaldehyde were dehydrated to be transparent. Then put the transparent tissue block into the melted paraffin, and embed it after the paraffin is completely immersed in the tissue block. Fix the embedded wax block on the microtome and cut it into 5 μm thin slices. The thin slice is ironed in hot water, then pasted on the glass slide, and dried. Before staining, paraffin wax in the sections was removed with xylene, then soaked with high to low concentration alcohol, and finally soaked in distilled water for 2 min. The dewaxed and rehydrated slices were stained in hematoxylin solution for several minutes and then washed with running water. Then put the slices into 1% hydrochloric alcohol (5–10 s) and rinse with tap water, after rinsing, place the slices in distilled water. After 2 min, the slices were removed and dehydrated with […]. After dehydration, the slices were stained with alcohol eosin solution for 2–3 min. After dehydration by alcohol, xylene was used to make the slices transparent. Finally, the transparent slices were dripped with gum and sealed with a cover glass.
Potassium oxonate (model drug), NAY (drug to be tested), and allopurinol (positive drug) were dissolved or suspended in double steaming water. […]

XOD [5] = assay: Western blot, XOD protein in AML12 cells; format: cell-based, mouse; details: allopurinol 100 μmol/L, p < 0.01
Description: The total protein of HK-2 cells and AML12 cells were extracted with total protein extraction kit, and the concentration was determined by the BCA kit. Electrophoresis, membrane transfer, antibody incubation, and other operations were performed in accordance with the Western blot experiment procedures. The protein bands were quantified by ImageJ software and normalized to individual β-actin expression levels.

[6] = Pharmacokinetics in rats (HPLC-MS/MS, WinNonlin); format: in vivo, SD rats
Description: The volume of intravenous administration was 1 ml/250 g, and the volume of oral administration was 1 ml/100 g. Whole blood was collected at 2, 5, 10, 20, 30, 60, 120, 240, 360, 480, 720, and 1440 min after intravenous administration. The rats’ blood was transferred to the heparinized test tube. The whole blood was centrifuged at 8,000 rpm for 5 min, and the plasma was separated and stored in a refrigerator at -80°C for testing.

[7] = allopurinol, rats, gavage 50 mg/kg, n = 3
[8] = allopurinol, rats, gavage 50 mg/kg, single animals, 50 mg/kg
[9] = allopurinol, rats, intravenous injection 5 mg/kg, single animals, 5 mg/kg

O=C1c2ccccc2C(=O)c2ccccc21 [AQ, 9,10-anthraquinone]
acute oral toxicity LD50 (mice): > 5,000 mg/kg BW
acute oral toxicity LD50 (rats): > 5,000 mg/kg BW

Oc1ncnc2[nH]ncc12 [allopurinol]
UA levels in hyperuricemia cell model (HK-2 cells): could reduce UA levels
XOD activity vs model group (XOD [1]): effect of the allopurinol group on reducing XOD viability and the level of supernatant UA were obvious
serum UA, CRE and BUN levels vs model group [2]: obviously decreased the aforementioned indexes
supernatant UA level vs model group (AML12 cells): effect of the allopurinol group on reducing XOD viability and the level of supernatant UA were obvious
patients who can reduce serum UA concentration to the target level (patients): less than 40%
IL-6 level in medium supernatant [3]: could reduce the IL-6 level
TNF-α level in medium supernatant [3]: significantly reduced the TNF-α level
liver tissue morphology (HE) [4]: many inflammatory cell infiltrates with a small number of hepatocyte necrosis
renal tissue morphology (HE) [4]: Renal cortical inflammatory cell infiltration and marked tubular luminal expansion
XOD protein expression vs model group (XOD [5]): significantly reduced
AUC(0-t) ([6]; SD, rat, plasma, iv, 5 mg/kg, allopurinol, rats, intravenous injection 5 mg/kg, n = 3, read-out: AUC (0–t), Average): 1540 ng·h/mL
AUC(0-inf) ([6]; SD, rat, plasma, iv, 5 mg/kg, allopurinol, rats, intravenous injection 5 mg/kg, n = 3, read-out: AUC (0–∞), Average): 1590 ng·h/mL
MRT inf ([6]; SD, rat, plasma, iv, 5 mg/kg, allopurinol, rats, intravenous injection 5 mg/kg, n = 3, read-out: MRT (0–∞), Average): 0.27 h
AUC(0-t) ([6]; SD, rat, plasma, iv, 5 mg/kg, allopurinol, rats, intravenous injection 5 mg/kg, single animals, read-out: AUC (0–t), individual rats 1-3): 1600 ng·h/mL
AUC(0-inf) ([6]; SD, rat, plasma, iv, 5 mg/kg, allopurinol, rats, intravenous injection 5 mg/kg, single animals, read-out: AUC (0–∞), individual rats 1-3): 1650 ng·h/mL
MRT inf ([6]; SD, rat, plasma, iv, 5 mg/kg, allopurinol, rats, intravenous injection 5 mg/kg, single animals, read-out: MRT (0–∞), individual rats 1-3): 0.27 h
AUC(0-inf) ([6]; SD, rat, plasma, iv, 5 mg/kg, allopurinol, rats, intravenous injection 5 mg/kg, read-out: AUC0-∞): 1590 ± 139 ng·h/mL
concentration at 2 min ([6]; SD, rat, plasma, iv, 5 mg/kg, read-out: C2min (drug concentration in plasma)): 5280 ± 686 ng/mL
k el ([6]; SD, rat, plasma, iv, 5 mg/kg, read-out: elimination rate constant K (converted)): 0.000964 s⁻¹
bioavailability ([6]; SD, rat, plasma, oral, 50 mg/kg, read-out: F): 158%
AUC(0-t) ([6]; SD, rat, plasma, po, 50 mg/kg, allopurinol, rats, gavage 50 mg/kg, n = 3, read-out: AUC (0–t), Average): 24500 ng·h/mL
AUC(0-inf) ([6]; SD, rat, plasma, po, 50 mg/kg, allopurinol, rats, gavage 50 mg/kg, n = 3, read-out: AUC (0–∞), Average): 25100 ng·h/mL
Cmax ([6]; SD, rat, plasma, po, 50 mg/kg, allopurinol, rats, gavage 50 mg/kg, n = 3, read-out: Cmax, Average): 6610 ng/mL
MRT inf ([6]; SD, rat, plasma, po, 50 mg/kg, allopurinol, rats, gavage 50 mg/kg, n = 3, read-out: MRT (0–∞), Average): 2.36 h
AUC(0-t) ([6]; SD, rat, plasma, po, 50 mg/kg, allopurinol, rats, gavage 50 mg/kg, single animals, read-out: AUC (0–t), individual rats 1-3): 27500 ng·h/mL
AUC(0-inf) ([6]; SD, rat, plasma, po, 50 mg/kg, allopurinol, rats, gavage 50 mg/kg, single animals, read-out: AUC (0–∞), individual rats 1-3): 28700 ng·h/mL
Cmax ([6]; SD, rat, plasma, po, 50 mg/kg, allopurinol, rats, gavage 50 mg/kg, single animals, read-out: Cmax, individual rats 1-3): 6100 ng/mL
MRT inf ([6]; SD, rat, plasma, po, 50 mg/kg, allopurinol, rats, gavage 50 mg/kg, single animals, read-out: MRT (0–∞), individual rats 1-3): 2.88 h
Tmax ([6]; SD, rat, plasma, po, 50 mg/kg, read-out: Tmax, individual rats 1-3): 1 h
bioavailability ([6]; SD, rat, plasma, po, 50 mg/kg, read-out: calculated bioavailability): 158%
Tmax, Average [6, 7]: 1.00 h
V/F, Average [6, 7]: 3.18 L/kg
Tmax, individual rats 1-3 ([6]; allopurinol, rats, gavage 50 mg/kg, single animals): 1.00 h
AUC (0–t), individual rats 1-3 [6, 8]: 19623.63 ng·h/mL and 26462.91 ng·h/mL
AUC (0–∞), individual rats 1-3 [6, 8]: 20029.34 ng·h/mL and 26666.72 ng·h/mL
Cmax, individual rats 1-3 [6, 8]: 5,968.97 ug/L and 7742.83 ug/L
MRT (0–∞), individual rats 1-3 [6, 8]: 1.84 h and 2.35 h
V/F, individual rats 1-3 [6, 8]: 3.19 L/kg and 3.81 L/kg and 2.53 L/kg
V, Average ([6]; allopurinol, rats, intravenous injection 5 mg/kg, n = 3): 0.92 L/kg
AUC (0–t), individual rats 1-3 [6, 9]: 1383.23 ng·h/mL and 1648.60 ng·h/mL
AUC (0–∞), individual rats 1-3 [6, 9]: 1432.09 ng·h/mL and 1687.42 ng·h/mL
MRT (0–∞), individual rats 1-3 [6, 9]: 0.29 h
V, individual rats 1-3 [6, 9]: 0.91 L/kg and 1.05 L/kg and 0.81 L/kg
